This is an account of results in publication PMC10587169, “Tuning aminopolycarboxylate chelators for efficient complexation of trivalent actinides” (Scientific Reports, 2023).

Like-named read-outs stand apart in the source and are kept apart here.

In general, pKa refers to the pH at which an ionisable group is half protonated.

The data set is described as follows: Potentiometric titration, acid dissociation constants. Type of data set: physicochemical. The procedure: All potentiometric titrations were run using a Mettler Toledo T90 autotitrator equipped with an Orion Ross Semi-micro glass electrode with the junction stabilization solution changed to 5.0 M NaCl to prevent precipitation with perchlorate media. All titrations were performed under a hydrated nitrogen atmosphere. The forward titration measurements (acidic titrand, basic titrant) of H4octapa in nitrate electrolyte medium were performed as described previously due to the limited solubility of this ligand in a 2 M (Na^+/H^+)ClO4 medium. Acid dissociation constants of H4octapa in perchlorate electrolyte medium were also determined by titrating in reverse (basic titrand, acidic titrant) to alleviate the solubility concerns. Titrations of H4pypa-peg were performed in reduced-volume glass titration cups (10 mL nominal) due to the limited supply of this ligand. All potentiometric titrations were run in triplicate. The choice of using p[H^+] was explained in Heathman et al.[15], and the calibration of the p[H^+] scale utilized Gran analysis through titration of a strong acid with the base used in the potentiometric titrations[29]–[31]. Potentiometric titration data was modeled and analyzed using Hyperquad2013 to determine acid dissociation and metal complexation stability constants[32],[33].
Changes in hydrogen ion concentration were monitored using a glass electrode for a solution of H4octapa as either NaOH or HClO4 were titrated into the solutions. […] The experimental potentiometric curve collected for a forward titration of H4octapa in (Na^+/H^+)NO3 is presented in Fig. 3A, alongside the distribution curves for the identified HnL species. Following those studies, the acid/base conditions were reversed and octapa^4− was titrated in 2.0 M (Na^+/H^+)ClO4 using HClO4 (SI Figure S7). The potentiometric curves are well respresented by five proton dissociation equilibria. The calculated equilibrium constants correspond with the protonation reactions for two aliphatic amines, two pyridine nitrogens, and one carboxylate group with the protonation sequence described by Eq. (2). The acid dissociation constants (pKa = − log10Ka) for H4octapa are reported in Table 1 alongside previously reported values in the literature.
The experimental potentiometric titration curve and the distribution curves for the associated HnL species for H4pypa-peg are presented in Fig. 3B. […] For comparison, the protonation equilibria of H4edta were also studied in 2.0 M (Na^+/H^+)ClO4. The pKa values for H4edta are listed in Table 2 and collected potentiometric titration curves (forward and reverse) are presented in SI Figure S8. For H4pypa-peg coordination pocket the protonation of H9L^5+, H7L^3+, and H6L^2+ cannot be characterized using a glass electrode. The H6L^2+ species likely represents a protonated carboxylate group, while H5L^+ and H4L may describe the pyridinecarboxylate nitrogens. The equilibrium involving H3L^− likely describes the dissociation of the protonated pyridine nitrogen, while the two most basic species in this ligand (HL^3− and H2L^2−) are likely the bridging amines in the H4pypa-peg backbone. Equation (3) describes the protonation sequence for H4pypa-peg.3 H10-aL^+6-a⇆H9-aL^+5-a+H^+Ka=H^+·H9-aL^+5-a/H10-aL^+6-aa=1…9

Where [1] appears, read: aqueous 2.0 M (Na+/H+)ClO4 electrolyte solution, I = 2.0 M (Na+/H+)ClO4 at 20.0 °C, read-out: pKa H2L species.
Where [2] appears, read: aqueous 2.0 M (Na+/H+)ClO4 electrolyte solution, I = 2.0 M (Na+/H+)ClO4 at 20.0 °C, read-out: pKa H3L species.
The mark [3] stands for this setting: aqueous 2.0 M (Na+/H+)ClO4 electrolyte solution, I = 2.0 M (Na+/H+)ClO4 at 20.0 °C, read-out: pKa H4L species.
The mark [4] stands for this setting: aqueous 2.0 M (Na+/H+)ClO4 electrolyte solution, I = 2.0 M (Na+/H+)ClO4 at 20.0 °C, read-out: pKa H5L species.
Where [5] appears, read: aqueous 2.0 M (Na+/H+)ClO4 electrolyte solution, I = 2.0 M (Na+/H+)ClO4 at 20.0 °C, read-out: pKa H6L species.
Setting [6] is: aqueous 2.0 M (Na+/H+)ClO4 electrolyte solution, I = 2.0 M (Na+/H+)ClO4 at 20.0 °C, read-out: pKa HL species.

Regarding `O=C(O)CN(CCN(CCN(CC(=O)O)CC(=O)O)CC(=O)O)CCN(CC(=O)O)CC(=O)O` [H6ttha, triethylenetetraamine-N,N,N',N'',N''',N'''-hexaacetic acid], the pKa is, setting by setting: under setting [1], 8.67; under setting [2], 6.27; under setting [3], 4.12; under setting [4], 2.7; under setting [5], 2.19; (aqueous 2.0 M (Na+/H+)ClO4 electrolyte solution, I = 2.0 M (Na+/H+)ClO4 at 20.0 °C, read-out: pKa H7L species) 1.86. The pKa under setting [6] came to 9.48.

In the case of `O=C(O)CN(Cc1cc(-c2cn(CCOCCOCCO)nn2)cc(CN(CC(=O)O)Cc2cccc(C(=O)O)n2)n1)Cc1cccc(C(=O)O)n1` [H4pypa-peg, 6,6'-((((4-(1-(2-(2-(2-hydroxyethoxy)ethoxy)ethyl)-1H-1,2,3-triazol-4-yl)pyridine-2,6-diyl)bis–(methylene))bis–((carboxymethyl)azanediyl))bis–(methylene)) dipicolinic acid], the pKa by setting is: (aqueous 2.0 M (Na+/H+)ClO4 electrolyte solution, I = 2.0 M (Na+/H+)ClO4 (Table 2), read-out: pKa H2L2-) 6.45; (aqueous 2.0 M (Na+/H+)ClO4 electrolyte solution, I = 2.0 M (Na+/H+)ClO4 (Table 2), read-out: pKa H3L-) 3.92; (aqueous 2.0 M (Na+/H+)ClO4 electrolyte solution, I = 2.0 M (Na+/H+)ClO4 (Table 2), read-out: pKa H4L(aq)) 3.37; (aqueous 2.0 M (Na+/H+)ClO4 electrolyte solution, I = 2.0 M (Na+/H+)ClO4 (Table 2), read-out: pKa H5L+) 2.45; (aqueous 2.0 M (Na+/H+)ClO4 electrolyte solution, I = 2.0 M (Na+/H+)ClO4 (Table 2), read-out: pKa H6L2+) 1.43; (aqueous 2.0 M (Na+/H+)ClO4 electrolyte solution, I = 2.0 M (Na+/H+)ClO4 (Table 2), read-out: pKa HL3-) 7.44.

Turning to `O=C(O)CN(CCN(CC(=O)O)Cc1cccc(C(=O)O)n1)Cc1cccc(C(=O)O)n1` [H4octapa, 6,6′-((ethane-1,2-diylbis–((carboxymethyl)azanediyl))bis–(methylene))dipicolinic acid], the pKa runs as follows: under setting [1], 5.57; under setting [2], 3.82; under setting [3], 3.18; under setting [4], 1.63; under setting [6], 8.41; (aqueous 2.0 M (Na+/H+)NO3 electrolyte solution, I = 2.0 M (Na+/H+)NO3 at 25.0 °C, read-out: pKa H2L2-) 5.27. Moreover, the pKa came out at 3.63 (aqueous 2.0 M (Na+/H+)NO3 electrolyte solution, I = 2.0 M (Na+/H+)NO3 at 25.0 °C, read-out: pKa H3L-); 3 (aqueous 2.0 M (Na+/H+)NO3 electrolyte solution, I = 2.0 M (Na+/H+)NO3 at 25.0 °C, read-out: pKa H4L(aq)); 1.63 (aqueous 2.0 M (Na+/H+)NO3 electrolyte solution, I = 2.0 M (Na+/H+)NO3 at 25.0 °C, read-out: pKa H5L+); 8.16 (aqueous 2.0 M (Na+/H+)NO3 electrolyte solution, I = 2.0 M (Na+/H+)NO3 at 25.0 °C, read-out: pKa HL3-).

Take `O=C(O)CN(CCN(CC(=O)O)CC(=O)O)CCN(CC(=O)O)CC(=O)O` [H5dtpa, diethylenetriamine-N,N,N',N'',N''-pentaacetic acid]: the pKa under setting [1] worked out at 8.31; the pKa under setting [2] was found to be 5.57; the pKa under setting [3] came out at 4.38; the pKa under setting [4] was determined as 2.53; the pKa under setting [5] is 2.41; the pKa under setting [6] worked out at 9.5.
